This passage reports cytotoxicity results from ChEMBL document CHEMBL3507680, “University of Dundee, Gates Library screen for HepG2 cell viability”.

The series can be described thus: Human HepG2 cell viability assay in 384 well format. The format is toxicity, cell-based. Also noted: dose 125 nL, time 70.5 hour; cytotoxicity at 70.5 h: concentration not given beside the values. The settings on record: HepG2 cells, read-out: Inhibition.

For the molecule `COCC[C@]1(O)CCN(Cc2nc(C(C)C)cs2)C[C@H]1C`, the cytotoxicity at 70.5 h was -6.41%.
For the molecule `COCCN1CC2(CCC1=O)CCN(Cc1nnc(C)o1)CC2`, the cytotoxicity at 70.5 h was -5.52%.
The same measure for `Cc1ncsc1C(=O)NCc1cccnc1N(C)CCc1ccccn1`: -5.9%; for `O=C1[C@H]2CC[C@H](CN(c3ncnc4ccsc34)C2)N1CC1CC1`: -11%.
For the molecule `Cc1nc(N(C)C)nc(-c2cccc(-c3ccn(CCCO)n3)c2)c1C`, the cytotoxicity at 70.5 h is -7.13%.
The same measure for `CN1[C@H]2CC[C@@H]1CN(C(=O)CCc1csc(N)n1)CC2`: -11.5%; for `CC(C)C1CN(Cc2nccn2C)CCC(=O)N1CC1CC1` (centres undefined): -2.87%; for `CCCn1c(C)c(CC(=O)N(C)CCO)c2c1CC(C)(C)CC2=O`: 26.2%.
The same measure for `Cc1ccc(S(=O)(=O)NCC2CNCCOC2)cc1Cl` (centres undefined): -2.6%; for `Cc1ccc2nc(C)c(C)c(C(=O)N3CCC4(CCO4)CC3)c2c1`: -5.61%; for `CCN(Cc1cnn(C)c1)C[C@H]1CC[C@@H](Cc2ccc(C#N)cc2)O1`: -17.4%.
The same measure for `C=C(C)CNC(=O)C1CCC(=O)N(C2CCCC2)C1` (centres undefined): -2.49%; for `Cc1nc(CN2CCC3(CCCO3)CC2)c2ccccn12`: 14.9%.
As for `CN(Cc1nc(COc2ccccc2)no1)CC1Cc2ccccc2O1` (centres undefined), the cytotoxicity at 70.5 h is -3.44%.
The same measure for `COC(C)(C)C(=O)N[C@H]1CN(c2ncccc2C(N)=O)C[C@@H]1C(C)C`: 0.335%.
For `Cc1nc(C(C)NCc2cc(O)c3cccc(F)c3n2)cs1` (centres undefined), the cytotoxicity at 70.5 h is -6.76%.
The same measure for `CCc1nnc(NC(=O)CCN2CC=C(c3cnn(C)c3)CC2)s1`: -7.5%.
As for `Cc1nn2c(NCC(N)=O)cc(-c3ccccc3)nc2c1C`, the cytotoxicity at 70.5 h amounted to 15.2%.
The result for `CCc1cnc(NCc2nc(COC)no2)nc1` reads -11.1%; that for `Cc1cc(C(=O)NC2CCCCNC2=O)c(=O)[nH]c1C` (centres undefined), -6.38%.
With `CCOCCC(=O)Nc1cc(C(N)=O)ccc1N1CCCC(C)C1` (centres undefined), the cytotoxicity at 70.5 h is -2.01%.
Consider `CC(C)[C@@H]1CN(Cc2ccsc2)C[C@H]1NS(=O)(=O)N(C)C`, for which the cytotoxicity at 70.5 h was determined as 1.27%.
The result for `CN(Cc1ccc2nsnc2c1)CC1(O)CCNC1` (centres undefined) reads -5.93%; that for `CCN1CCC(CNS(=O)(=O)N2CCc3ccccc3C2)C1` (centres undefined), 6.73%; that for `CC(C)c1noc(CN(Cc2cccnc2)C2CN3CCC2CC3)n1` (centres undefined), 52.5%.
Regarding `Cc1ccc2cc(C3(O)CCN(C(=O)CSC(C)C)CC3)ccc2n1`, the cytotoxicity at 70.5 h was -6%.
The result for `O=C(O)C1(n2cccn2)CCN(Cc2nc(-c3ccccc3)no2)CC1` reads -9.66%.
Consider `COc1cccc(CC(=O)N2CCc3ncnc(NCCO)c3CC2)c1`, for which the cytotoxicity at 70.5 h was -9.99%.
The result for `CNS(=O)(=O)CCn1cc(-c2ccc(NC(C)=O)cc2)nn1` reads 3.8%; that for `O=C(N[C@H]1CN(C2CCOCC2)C[C@@H]1C1CC1)c1cc(O)no1`, -7.33%.
The same measure for `COc1nccc(N2CC[C@H](N3CCOCC3)[C@H](CCCO)C2)c1C#N`: -7.48%; for `COCCN1CC2(CCCN(C(=O)CCCc3cccs3)C2)CCC1=O` (centres undefined): 9.49%; for `Cc1ccccc1-n1ncc(C(C)N)c1C` (centres undefined): 26.7%.
The result for `CC(=O)Nc1ccc2nc(-c3nccn3CCCN(C)C)ccc2c1` reads -8.35%.
Consider `OCC1CCN(C[C@@H]2CN(C3Cc4ccccc4C3)C[C@@H]2CO)CC1`, for which the cytotoxicity at 70.5 h was -4.9%.
The same measure for `Cc1ccc(OCC(=O)N2CCOCC(O)(CN3CCCC3)C2)cc1C` (centres undefined): 27.8%; for `CCc1cnc(C)nc1N1CCN(Cc2ccc(-c3cc[nH]n3)o2)CC1`: 9.84%; for `Cc1c(-c2nnc(SCC(=O)O)n2C(C)c2ccccc2)cnn1C` (centres undefined): -12.3%.
The result for `CCc1cc(NCCC(F)(F)F)nc(N2CCOCC2)n1` reads -7.87%; that for `C=C(C)COc1cccc(C(=O)N2CCC(O)(c3ccccc3)CC2)c1`, 7.64%.
The same measure for `Cc1ccccc1N1CC(C)N(Cc2ccc(C)c(F)c2F)CC1=O` (centres undefined): 5.81%; for `CC(C)(C(=O)NCC1CCN(Cc2ccccn2)C1)c1ccccc1` (centres undefined): 18.1%.
As for `CCc1ccc(C(=O)N2CC[C@](C)(O)C(C)(C)C2)[nH]1`, the cytotoxicity at 70.5 h is -3.24%.
The same measure for `O=C(C1CCCO1)N1CCC(Cn2cc(C3CCCC3)nn2)CC1` (centres undefined): 2.36%.
Take `O=C(CCn1cncn1)N1CCCC(CO)(CCCc2ccccc2)C1` (centres undefined): the cytotoxicity at 70.5 h is 15.8%.
For the molecule `CC(=O)N[C@@H]1CN(Cc2ccccc2-n2nc(C)cc2C)C[C@H]1C(C)C`, the cytotoxicity at 70.5 h is -7.15%.
The same measure for `Cc1ccccc1CC(=O)N1CCCn2cncc2C1`: -9.13%.
As to `Cc1cc(NC2CCCN(Cc3ccc(F)cc3)C2)n2nc(C)cc2n1` (centres undefined), the cytotoxicity at 70.5 h is -0.0493%.
The same measure for `Cc1[nH]c2ccc(Cl)cc2c1CCNc1ncnc2c1CCNC2`: -6.2%; for `CCCN1CCC=C(C2c3nc[nH]c3CCN2C(=O)c2ccco2)C1` (centres undefined): 22.4%.
Take `O=C(Cn1[nH]c2ccccc2c1=O)N1CCCC(CC2CC2)(C(=O)O)C1` (centres undefined): the cytotoxicity at 70.5 h is -7.99%.
Consider `CNC(=O)c1ccnc(CC2COc3c(cccc3OC)C2)c1` (centres undefined), for which the cytotoxicity at 70.5 h is -25.4%.
As to `CCNc1ncc(CN(Cc2ccccc2)CC(C)CO)cn1` (centres undefined), the cytotoxicity at 70.5 h is -4.08%.
Consider `CC(C)Nc1cc(N2CCN(Cc3ccccc3)C(CCO)C2)ncn1` (centres undefined), for which the cytotoxicity at 70.5 h was -1.73%.
The same measure for `Cc1nc(O)cc(C2CCN(C(=O)C(C)Cn3nc(C)nc3C)CC2)n1` (centres undefined): -4.5%.
The same measure for `C[C@@H](O)[C@H](NC(=O)c1csc2nc(-c3ccccc3F)cn12)C(N)=O`: 2.4%.
The result for `CCC(CO)N(Cc1ccccn1)Cc1ccc(-c2ccn[nH]2)s1` (centres undefined) reads -14%.
With `CNC(=O)C1CCN(c2ncc3c(n2)CCN3c2ccccc2)C1` (centres undefined), the cytotoxicity at 70.5 h was -4.33%.
For the molecule `Cc1nc2c(c(N3C[C@@H](C)[C@@](C)(O)C3)n1)CCC2`, the cytotoxicity at 70.5 h was found to be 22.5%.
Consider `CC(C)[C@@H]1CN(c2ccc(F)cn2)C[C@H]1NS(C)(=O)=O`, for which the cytotoxicity at 70.5 h worked out at 12.1%.
Take `CN1CCC(N(C)C[C@H]2CC[C@@H](Cc3cccc(O)c3)O2)CC1`: the cytotoxicity at 70.5 h turned out to be 43.7%.
The result for `COCCC1(C(=O)O)CCCN(CCOCc2ccccc2)C1` (centres undefined) reads -3.38%; that for `Cc1cc2c(N3CCCC(OCc4cccnc4)C3)ncnc2s1` (centres undefined), -9.75%.
`Nc1nc(NCCO)cc(N2CCc3c([nH]c4ccccc34)C2)n1`: the cytotoxicity at 70.5 h was -7.97%.
The result for `CC(C)c1cc(NCC(O)c2ccncc2)n2nccc2n1` (centres undefined) reads 14.4%; that for `Cc1cc(C)n(Cc2cc(C(=O)N3CCCC3c3ccccn3)n[nH]2)n1` (centres undefined), -17.2%; that for `Cc1ccc(OCC(O)CNC(=O)C2(c3ccc(F)cc3)CC2)cc1` (centres undefined), -7.12%.
Take `Cc1c(C(=O)N2CCN(C)[C@@H]3CS(=O)(=O)C[C@@H]32)[nH]c2ccc(F)cc12`: the cytotoxicity at 70.5 h was -1.69%.
Turning to `CCCN1CCCC2(CCN(Cc3cncn3C3CCCC3)C2)C1=O` (centres undefined), the cytotoxicity at 70.5 h is -8.03%.
